pIC50: −log10 of the molar value. In brackets after ≈: the same amount, converted by molar mass. Several values for one entry are separate records, joined by “and”; a condition that tells them apart may be missing. Equal values may be shown once.
Experiments:
KB = test: Antiproliferative activity against human KB cells assessed as cell growth inhibition; type: functional, cell-based
HL-60 = test: Antiproliferative activity against human HL-60 cells assessed as cell growth inhibition; type: functional, cell-based
P388 = test: Antiproliferative activity against mouse P388 cells assessed as cell growth inhibition; type: functional, cell-based
[1] = test system: Peritoneal macrophage cell; test: Inhibition of superoxide anion radical release in guinea pig peritoneal macrophages; type: functional, cell-based; details: Cavia porcellus
[2] = biological target: T1, Polyunsaturated fatty acid 5-lipoxygenase (Homo sapiens) (UniProt P09917); test: Inhibition of ALOX5 (unknown origin) at 0.000001 M relative to control; details: dose 1 µM
T1 sequence (whole entry): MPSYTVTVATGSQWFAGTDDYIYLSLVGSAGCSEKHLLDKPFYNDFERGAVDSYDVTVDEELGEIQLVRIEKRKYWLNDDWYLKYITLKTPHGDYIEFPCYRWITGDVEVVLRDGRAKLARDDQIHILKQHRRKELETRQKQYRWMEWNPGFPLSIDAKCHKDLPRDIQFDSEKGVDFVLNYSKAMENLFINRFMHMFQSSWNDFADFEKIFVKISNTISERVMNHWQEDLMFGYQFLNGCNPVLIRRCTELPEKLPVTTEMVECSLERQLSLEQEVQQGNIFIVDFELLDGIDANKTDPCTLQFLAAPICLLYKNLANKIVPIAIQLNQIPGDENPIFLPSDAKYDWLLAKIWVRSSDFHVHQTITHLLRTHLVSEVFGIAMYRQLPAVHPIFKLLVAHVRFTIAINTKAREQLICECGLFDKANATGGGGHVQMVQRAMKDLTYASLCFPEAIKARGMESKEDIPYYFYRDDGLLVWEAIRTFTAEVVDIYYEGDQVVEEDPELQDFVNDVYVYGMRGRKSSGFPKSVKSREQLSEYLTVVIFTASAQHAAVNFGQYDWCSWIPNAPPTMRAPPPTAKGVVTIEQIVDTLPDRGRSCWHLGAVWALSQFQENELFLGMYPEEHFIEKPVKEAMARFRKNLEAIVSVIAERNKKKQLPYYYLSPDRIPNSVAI

[3] = test system: Trichostrongylus colubriformis; test: Anthelmintic activity against third stage larvae of Trichostrongylus colubriformis by microscope based analysis; type: functional, organism-based
Staphylococcus aureus = test: Antibacterial activity against Staphylococcus aureus assessed as inhibition of bacterial growth by agar diffusion method; type: functional
RAW264.7 [4] = test: Inhibition of LPS-induced NO production in mouse RAW264.7 cells incubated for 24 hrs by Griess reagent based assay; type: functional, cell-based; details: RAW264.7, 24 h
RAW264.7 [5] = test: Inhibition of LPS-induced NO production in mouse RAW264.7 cells; type: functional, cell-based
Candida albicans = test: Antifungal activity against Candida albicans assessed as inhibition of fungal growth by MTT assay; type: functional
Cyclooxygenase = Cyclooxygenase (Homo sapiens, UniProt P35354+P23219); test: Inhibition of COX (unknown origin); type: protein assay
RPMI-7951 = test: Antiproliferative activity against human RPMI-7951 cells assessed as cell growth inhibition; type: functional; details: read-out: ED50 (the source's name)
U-251 = test: Antiproliferative activity against human U-251MG cells assessed as cell growth inhibition; type: functional; details: read-out: ED50 (the source's name)
DNA polymerase beta = DNA polymerase beta (Homo sapiens, UniProt P06746); test: Inhibition of DNA polymerase beta (unknown origin)

COc1ccc(C[C@@H]2OC(=O)c3c(OC)cc(OC)cc32)cc1
pIC50 (KB): 6.02
pIC50 (HL-60): 6.04

C=C1C(=O)O[C@@H]2/C=C(\C)CC/C=C(\C)CC(OC(C)=O)[C@@H]12 (stereo partly drawn)
pIC50 (HL-60): 5.34

C=C1C(=O)C[C@H]2[C@H]3[C@@H]1[C@]2(C)CCCC3(C)C
IC50 (P388): 1 µg/mL (≈ 4.58 µM)

C[C@H]1C(=O)C2=C[C@H]1CCC(=O)[C@]1(C)CCCC(C)(C)[C@H]1C[C@H]2O
GI50 (P388): 1.9 µg/mL and 5.9 µM
IC50 (P388): 0.8 µg/mL (≈ 2.51 µM)

CC1(C)[C@H](OC(=O)/C=C/c2ccc(O)c(O)c2)CC[C@]2(C)[C@H]3C4C[C@@]12C[C@]43C
IC50 [1]: 7.5 µg/mL (≈ 19.6 µM)

CC1=CCc2c(O)cc(CCc3ccc(O)cc3)cc2OC1
inhibition [2]: 4%

C=C1C(=O)O[C@H]2/C=C(\C)CC/C=C(\C)CC[C@H]12
IC50 (P388): 0.7 µg/mL (≈ 3.01 µM)

COc1cc(/C=C\c2ccccc2)ccc1O
IC50 [3]: 70 µg/mL (≈ 309 µM)

C=C1C(=O)[C@]23C[C@H]1CC[C@H]2[C@]1(C)CCCC(C)(C)[C@H]1[C@@H](O)C3
pIC50 (HL-60): 6.40

C=C1C(=O)O[C@H]2C3=C(C)CCC[C@@]3(C)CC[C@H]12
IC50 (P388): 1.1 µg/mL (≈ 4.73 µM)

C=C1[C@@H]2CCC3[C@@](CC(=O)[C@@H]4C(C)(C)CCC[C@@]34CO[C@@H]3O[C@H](CO)[C@@H](O)[C@H](O)[C@H]3O)(C2)[C@@H]1O (stereo partly drawn)
IC50 [1]: 12.5 µg/mL (≈ 26 µM)

C=C1C(=O)[C@@]23CC[C@@H]4C(C)(C)CCC[C@@]4(C)C2=CC(=O)[C@@H]1C3
pIC50 (HL-60): 6.23

NC[C@H]1O[C@H](O[C@H]2[C@H](O)[C@@H](O[C@H]3O[C@H](CO)[C@@H](O)[C@H](N)[C@H]3O)[C@H](N)C[C@@H]2N)[C@H](O)[C@@H](O)[C@@H]1O [KANAMYCIN]
diameter of the inhibition zone (DIZ) (Staphylococcus aureus): 23 mm

C=C[C@@]1(O)CC(=O)[C@@]2(C(=O)OC)[C@H](C)CC[C@@]2(C)[C@@H]1C
pIC50 (HL-60): 5.57

Cc1cc([C@@]2(C)CCCC2(C)C)ccc1O
pIC50 (RAW264.7 [4]): 5.39

CC1(C)[C@H]2CC[C@]3(C)Oc4cc(O)cc(CCc5ccccc5)c4[C@H]1[C@@H]23
pIC50 (RAW264.7 [5]): 5.35

C[C@]12COc3cc(CCc4ccccc4)c(C(=O)O)c(O)c3[C@H]1C2
IC50 [1]: 6 µg/mL (≈ 18.5 µM)

C=C1C(=O)C[C@H]2[C@H]3[C@@H]1[C@]2(COC(C)=O)CCCC3(C)C
IC50 (P388): 1 µg/mL (≈ 3.62 µM)

Clc1ccc(COC(Cn2ccnc2)c2ccc(Cl)cc2Cl)c(Cl)c1 (stereo not drawn) [MICONAZOLE]
MID (Candida albicans): 0.01 µg

C=C1C(=O)[C@@]23CC[C@@H]4C(C)(C)CC[C@H](O)[C@@]4(C)C2=CC[C@@H]1C3
pIC50 (HL-60): 5.15

CC1=CCc2c(O)cc(CCc3ccccc3O)cc2OC1
pIC50 (RAW264.7 [5]): 5.35

C[C@H]1C(O)(O)C[C@@]2(C)[C@@H](CC[C@@H]3O[C@@]32C)[C@]1(C)CCc1ccoc1
pIC50 (RAW264.7 [5]): 5.35

C=C1C(=O)O[C@H]2C/C(C)=C/CC[C@@]3(C)O[C@H]3C[C@H]12
pIC50 (HL-60): 5.07

C=C1CC[C@H]2[C@@H]([C@H]3C(C)=COC(=O)[C@@H]13)C2(C)C
IC50 [1]: 12.5 µg/mL (≈ 53.8 µM)

O=C(N[C@H](CO)[C@H](O)c1ccc([N+](=O)[O-])cc1)C(Cl)Cl [CHLORAMPHENICOL]
diameter of the inhibition zone (DIZ) (Staphylococcus aureus): 22 mm

COC(=O)[C@@]12Cc3occc3C(=O)[C@]1(C)CC[C@H]2C [NORPINGUISONE METHYL ESTER]
IC50 [1]: 35 µg/mL (≈ 133 µM)
pIC50 (RAW264.7 [5]): 4.34

Cc1ccc(O)c([C@@]2(C)CCCC2(C)C)c1
pIC50 (RAW264.7 [4]): 5.39

C[C@H]1CC[C@@]2(C)[C@@H](CC[C@@H]3O[C@@]32C)[C@]1(C)CCc1ccoc1
pIC50 (RAW264.7 [5]): 5.35

COC1Cc2cccc(c2)Oc2c(O)cccc2CCc2ccc(cc2)Oc2cc1cc(O)c2O (stereo not drawn) [MARCHANTIN E]
pIC50 (KB): 5.12
MID (Candida albicans): 2.5 µg/mL
inhibition [2]: 4%
IC50 (Cyclooxygenase): 58 µM

C=C1C(=O)[C@H]2C[C@@H]1CC1=C2[C@]2(C)CCCC(C)(C)[C@H]2CC1
pIC50 (HL-60): 5.92

CC(C)(O)[C@H]1CC[C@@]2(C)C1CC[C@]1(C)C2CCC2[C@@]3(C)CCCC(C)(C)[C@@H]3[C@@H](O)C[C@]21C (stereo partly drawn)
IC50 (P388): 1.1 µg/mL (≈ 2.47 µM)

Oc1cc(CCc2ccccc2O)c2ccoc2c1
pIC50 (RAW264.7 [5]): 5.35

CC(C)=CCc1c(O)cc(CCc2ccccc2)cc1O
inhibition [2]: 4%

C[C@@H]1CC[C@H]2C(=O)c3ccoc3C[C@@]12C
IC50 [1]: 12.5 µg/mL (≈ 61.2 µM)
pIC50 (RAW264.7 [5]): 5.77

CC1=CCc2c(cc(CCc3ccccc3)c(C(=O)O)c2O)OC1
inhibition [2]: 4%
IC50 (Cyclooxygenase): 39.7 µM

O=C(/C=C/c1ccccc1)c1cc(O)cc2c1CC(c1ccccc1)O2 (stereo not drawn) [PALLIDISETIN A]
EC50 (RPMI-7951): 1 µg/mL (≈ 2.92 µM)
EC50 (U-251): 2 µg/mL (≈ 5.84 µM)

C=C1C(=O)[C@@H]2C3=C(CC[C@@H]4C(C)(C)CCC[C@@]34C)C[C@H]1[C@@H]2O
pIC50 (HL-60): 5.89

COc1cc(OC)c2c3c1-c1c(O)cccc1[C@@H]1Oc4ccccc4[C@@H](C[C@@H]2O)[C@@H]31
EC50 (U-251): 0.8 µg/mL (≈ 1.99 µM)

CC(C)=CCC/C(C)=C/Cc1c(O)cc(O)cc1CCc1ccccc1
pIC50 (RAW264.7 [5]): 5.35

COc1cc(CCc2cccc(Oc3c(O)cccc3CCc3ccc(O)cc3)c2)cc(O)c1O
IC50 (Cyclooxygenase): 45.2 µM
pIC50 (DNA polymerase beta): 4.84

C=C1CCC[C@H]2C(=C)C(=O)O[C@@]23[C@@H](C)CC[C@@H]13
IC50 (HL-60): 5.3 µg/mL

CC(C)=CCC[C@@]1(C)C=Cc2c(CCc3ccccc3)cc(O)cc2O1
pIC50 (RAW264.7 [5]): 5.35

C=C1C(=O)O[C@H]2C[C@@]3(C)CCC=C(C)[C@@H]3C[C@@H]12
IC50 (KB): 3.3 µg/mL
IC50 (HL-60): 1.4 µg/mL

Oc1ccc2cc1Oc1ccc(cc1)CCc1c(cc(O)c(O)c1O)-c1ccc(cc1O)CC2
MID (Candida albicans): 4 µg/mL

O=C(/C=C\c1ccccc1)c1cc(O)cc2c1CC(c1ccccc1)O2 (stereo not drawn) [PALLIDISETIN B]
EC50 (RPMI-7951): 1 µg/mL (≈ 2.92 µM)
EC50 (U-251): 2 µg/mL (≈ 5.84 µM)

CC1=CCc2c(O)cc(CCc3ccccc3)cc2OC1
inhibition [2]: 4%
pIC50 (RAW264.7 [5]): 5.35

C=C1C(=O)[C@@]23CC[C@@H]4C(C)(C)CCC[C@@]4(C)[C@@H]2[C@@H](O)C[C@@H]1C3
GI50 (P388): 0.48 µg/mL and 1.6 µM
pIC50 (HL-60): 6.31

C=C1C(=O)[C@@H]2C3=C(CC[C@@H]4C(C)(C)CC[C@H](O)[C@@]34C)C[C@H]1[C@@H]2O
pIC50 (HL-60): 6.11

Oc1ccc2c(c1)CCc1ccc(cc1)Oc1cc(cc(-c3cc4cc(c3O)Oc3ccc(cc3)CCc3cc(O)ccc3-c3ccc(cc3O)CC4)c1O)CCc1ccc-2c(O)c1 [PUSILATIN B]
pIC50 (DNA polymerase beta): 4.89

Cc1cc([C@@]2(C)CCCC2(C)C)cc(O)c1O
IC50 [1]: 12.5 µg/mL (≈ 53.3 µM)

CC1(C)CCC[C@]2(C)CC3=CC(=O)O[C@@]3(O)C[C@@H]12
IC50 (P388): 2.3 µg/mL (≈ 9.19 µM)

C=C1C(=O)[C@H]2C[C@@H]1CC1=C2[C@@]2(C)[C@H](CC1)C(C)(C)CC[C@@H]2O
pIC50 (HL-60): 6.55

Oc1ccc2c(c1)CCc1ccc(cc1)Oc1cc(cc(-c3cc4c(cc3O)CCc3ccc(cc3)Oc3cc(ccc3O)CCc3ccc-4c(O)c3)c1O)CCc1ccc-2c(O)c1
pIC50 (DNA polymerase beta): 5.29

C=C1C[C@@]23CC(OC(=O)/C=C/c4ccc(O)c(O)c4)[C@@H]1[C@@]2(C)CCCC3(C)C (stereo partly drawn)
pIC50 (RAW264.7 [5]): 5.20

CC1(C)CCC[C@]2(C)[C@@H](C=O)C(C=O)=CC[C@@H]12 [POLYGODIAL]
IC50 [3]: 70 µg/mL (≈ 299 µM)

Oc1cccc(CCc2ccc(Oc3cc(CCc4cccc(O)c4)cc(O)c3O)cc2)c1 [PERROTETTIN F]
pIC50 (DNA polymerase beta): 4.84

Cc1ccc([C@@]2(C)CCCC2(C)C)c(O)c1O
pIC50 (RAW264.7 [4]): 5.39

C/C1=C\[C@@H]2[C@H](CC/C(C)=C/CC1)C2(C)C=O (stereo partly drawn)
IC50 [1]: 12.5 µg/mL (≈ 57.3 µM)

C=C1[C@@H]2CCC3[C@@](CC(=O)[C@@H]4C(C)(C)CCC[C@@]34CO[C@@H]3O[C@H](CO)[C@@H](O)[C@H](O)[C@H]3OC(C)=O)(C2)[C@@H]1O (stereo partly drawn)
IC50 [1]: 12.5 µg/mL (≈ 23.9 µM)
